We go through 13 compounds from article PMC9855333, “1-(Arylsulfonyl-isoindol-2-yl)piperazines as 5-HT6R Antagonists: Mechanochemical Synthesis, In Vitro Pharmacological Properties and Glioprotective Activity” (Biomolecules, 2022).

Molecules are shown by their SMILES. Several values for one entry are separate records, joined by “and”; a condition that tells them apart may be missing. Equal entries are not always repeated.

Data set [1] has as its target T1, 5-HT6R (Homo sapiens, UniProt P50406). As to the kind of experiment: Radioligand binding, [3H]-LSD displacement, HEK-293 cells. Also noted: expressed in transfected cells. To be noted: Table 1; HEK293 cells; three independent binding experiments; read-out: Ki [nM] ± SEM at the 5-HT6R. As for the experimental part: All experiments were performed in HEK-293 cells, which stably express the human 5-HT1A, 5-HT6, 5-HT7b, and D2L receptors, or using CHO-K1 cells expressing human serotonin 5-HT2A receptor, following the previously reported procedures. For displacement studies, the following radioligands (PerkinElmer, USA) at given concentrations were used at: 2.5 nM [^3H]-8-OH-DPAT (135.2 Ci/ mmol); 1 nM [^3H]-ketanserin (53.4 Ci/mmol); 2 nM [^3H]-LSD (83.6 Ci/mmol); 0.8 nM [^3H]-5-CT (39.2 Ci/mmol) or 2.5 nM [^3H]-raclopride (76.0 Ci/mmol) for 5-HT1A, 5-HT2A, 5-HT6, 5-HT7b and D2L receptors, respectively. All tested compounds were evaluated in triplicate at 7 concentrations (10^−10–10^−4 M). The inhibition constants (Ki) were calculated from the Cheng–Prusoff equation [25]. A detailed description is reported in the Supporting Information.
All synthesized compounds were evaluated in ^3[H]-LSD competition binding experiments for their affinity for 5-HT6R expressed in HEK-293 cells (Table 1). Embedding the sulfonamide moiety into an unsubstituted isoindoline scaffold was sufficient to provide potent compounds 3a and 3e. […] This effect might result from the favorable localization of the bromine atom at the isoindoline fragment, which enabled compound 3k to adopt an optimal position in the receptor binding pocket via the formation of hydrophobic/steric interactions.
1. Procedure for radioligand binding assay
All experiments were carried out according to the previously published procedures. HEK293 cells stably expressing human 5-HT1A, 5-HT6, 5-HT7b and D2L receptors (prepared with the use of Lipofectamine 2000) or CHO-K1 cells with plasmid containing the sequence coding for the human serotonin 5-HT2A receptor (Perkin Elmer) were maintained at 37 °C in a humidified atmosphere containing 5% CO2 and grown in Dulbecco’s Modified Eagle’s Medium containing 10% dialyzed fetal bovine serum and 500 μg/ml G418 sulfate. For membrane preparation, cells were cultured in 150 cm2 flasks, grown to 90% confluence, washed twice with pre-warmed to 37 °C phosphate buffered saline (PBS) and centrifuged (200 × g) in PBS containing 0.1 mM EDTA and 1 mM dithiothreitol. Prior to membrane preparation, pellets were stored at –80 °C. Cell pellets were thawed and homogenized in 10 volumes of assay buffer using an Ultra Turrax tissue homogenizer and centrifuged twice at 35,000 × g for 15 min at 4 °C, with incubation for 15 min at 37 °C between the centrifugations. The composition of the assay buffers was experimentally selected to achieve the […]
5-HT1AR: 50 mM Tris HCl, 0.1 mM EDTA, 4 mM MgCl2, 10 μM pargyline and 0.1% ascorbate; 5-HT2AR: 50 mM Tris HCl, 0.1 mM EDTA, 4 mM MgCl2 and 0.1% ascorbate;
5-HT6R: 50 mM Tris HCl, 0.5 mM EDTA and 4 mM MgCl2; 5-HT7bR: 50 mM Tris HCl, 4 mM MgCl2, 10 μM pargyline and 0.1% ascorbate; D2LR: 50 mM Tris HCl, 1 mM EDTA, 4 mM MgCl2, 120 mM NaCl, 5 mM KCl, 1.5 mM CaCl2 and 0.1% ascorbate).
All assays were carried out in a total volume of 200 μL in 96-well plates for 1 h at 37 °C, except 5-HT1AR and 5-HT2AR which were incubated at room temperature and 27 °C, respectively.
The process of equilibration was terminated by rapid filtration through Unifilter plates with a 96-well cell harvester and radioactivity retained on the filters was quantified on a Microbeta plate reader (PerkinElmer, USA). For displacement studies the assay samples contained as radioligands (PerkinElmer, USA): 2.5 nM [3H]-8-OH-DPAT (135.2 Ci/ mmol) for 5-HT1AR; 1 nM [3H]-ketanserin (53.4 Ci/mmol) for 5-HT2AR; 2 nM [3H]-LSD (83.6 Ci/mmol) for 5-HT6R; 0.8 nM [3H]-5-CT (39.2 Ci/mmol) for 5-HT7R or 2.5 nM [3H]-raclopride (76.0 Ci/mmol) for D2LR. Non-specific binding was defined in the presence of 10 μM of 5-HT in 5-HT1AR and 5-HT7R binding experiments, 20 μM of mianserin for 5-HT2AR, 10 μM of methiothepine for 5-HT6R or 10 μM of haloperidol for D2LR bidning assays. Each compound was tested in triplicate at 7 concentrations (10-10–10-4 M). The inhibition constants (Ki) were calculated […]

Data set [2] deals with C8-D1A astrocytes. The data set can be described thus: Glioprotection against rotenone-induced cytotoxicity, MTT. In kind it is cell-based, mouse. The note with it: compound 0.25 µM, rotenone 0.5 µM, 24 h. As for the experimental part:
(§1) Mouse astrocytes (C8-D1A cell line, ATCC) were cultured in DMEM (Dulbecco’s Modified Eagle’s Medium) supplemented with 10% FBS (FBS; Gibco, Life Technologies, Carlsbad, CA, USA) and 1% antibiotic mixture (Gibco, Life Technologies, Carlsbad, CA, USA) at standard condition until the cells reached 80–90% confluence. Cells were harvested and seeded in 96-well plates at a density of 5000 cells/well. All experiments were conducted with a reduced amount of serum equal to 2.5%. The optimal amount of serum was determined experimentally on the basis of preliminary studies. […] Then 6-OHDA (20 µM) or rotenone (0.5 µM) were added and co-incubated for the next 24 h. The ability of tested compounds to prevent 6-OHDA-induced or rotenone-induced cytotoxicity was assessed by MTT assay following the protocol described above. The experiments were run three times in triplicates.
(§2) Considering the pivotal physiological role of astrocytes in contrasting oxidative stress and promoting tissue repair, supporting their neuroprotective function might be regarded as a tangible strategy to improve the current therapeutic needs in the treatment of neurodegenerative disorders. […] For this purpose, cells were co-incubated with the evaluated compounds (at the non-toxic concentration of 0.25 µM) and 6-OHDA or ROT (20 and 0.5 µM, respectively). After 24 h of incubation, the viability of astrocytes was determined using the MTT assay.

Data set [3] deals with C8-D1A astrocytes. As to the kind of experiment: Glioprotection against 6-OHDA-induced cytotoxicity, MTT. In kind it is cell-based, mouse. To be noted: compound 0.25 µM, 6-OHDA 20 µM, 24 h. As for the experimental part:
as §1, §2

Data set [4] is described as follows: Cytotoxicity, MTT test, HepG2. To be noted: human, HepG2 cells (human hepatocellular carcinoma). In kind it is cell-based. On the procedure:
(§3) Hepatotoxicity, neurotoxicity, and glial cytotoxicity were investigated using the following cellular models: human hepatocellular carcinoma (HepG2), human neuroblastoma (SHSY-5Y), and mouse astrocytes (C8-D1A), all from ATCC (American Type Culture Collection, Manassas, VA, USA). Cells were cultured in appropriate culture media recommended by ATCC supplemented with 10% fetal bovine serum (FBS; Gibco, Life Technologies, Carlsbad, CA, USA) and 1% antibiotic mixture (Gibco, Life Technologies, Carlsbad, CA, USA). Cells were cultured at standard conditions (5% CO2, 95% humidity, 37 °C). For cytotoxicity experiments, cells were seeded into 96 well plates at an initial density of 2000 cells/well. After overnight incubation, cells were treated with 3e, 3f, and 3g in a concentration range of 0.78–50 µM for 48 h; then, an MTT assay was performed as described previously. Briefly, following cell exposure, 10 µL of MTT reagent was added to each well. After the next 4 h, the medium was aspirated, and formazan produced in cells appeared as dark crystals in the bottom of the wells. Next, 100 µL DMSO was added to each well. Then, the optical density of the solution (OD) at 570 nm was determined on a plate reader (Spectra Max iD3, Molecular Devices, San Jose, CA, USA). The experiments were run three times in triplicates.

The nature of data set [5]: Cytotoxicity, MTT test, SH-SY5Y. It is filed as cell-based. The note with it: human, SH-SY5Y cells (human neuroblastoma). On the procedure:
as §3

A short description of data set [6]: Cytotoxicity, MTT test, C8-D1A. It is filed as cell-based. The note with it: mouse, C8-D1A cells (mouse astrocytes). As for the experimental part: as §3
Data set [7] deals with 5-HT6R-operated Cdk5 signaling. To be noted: Figure 1; cited from earlier work.
The target of data set [8] is T1, 5-HT6R. More on the design: expressed in transfected cells; host or cells: NG108-15 (mouse neuroblastoma x rat glioma hybrid), transient co-transfection with CAMYEL, Lipofectamine 2000. To be noted: Figure 1; cited from earlier work.

One may read the Ki as a dissociation constant, usually derived from enzyme kinetics or from competition with a known ligand. As a reminder, the IC50 is the concentration that inhibits the measured activity by half. A high value points to weaker potency in that assay.

T1 sequence (P50406 whole entry): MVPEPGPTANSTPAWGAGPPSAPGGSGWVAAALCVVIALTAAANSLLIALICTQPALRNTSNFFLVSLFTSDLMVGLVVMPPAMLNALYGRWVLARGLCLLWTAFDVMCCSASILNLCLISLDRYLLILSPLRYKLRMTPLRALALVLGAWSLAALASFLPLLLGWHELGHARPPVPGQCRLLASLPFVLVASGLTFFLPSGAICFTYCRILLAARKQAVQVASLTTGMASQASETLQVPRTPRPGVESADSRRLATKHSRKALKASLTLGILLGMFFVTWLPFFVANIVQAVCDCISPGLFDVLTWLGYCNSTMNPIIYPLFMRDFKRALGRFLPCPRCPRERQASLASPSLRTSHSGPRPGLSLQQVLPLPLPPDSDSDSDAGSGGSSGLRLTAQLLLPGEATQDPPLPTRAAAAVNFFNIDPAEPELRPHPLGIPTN

On to `O=S(=O)(c1ccccc1N1CCNCC1)N1Cc2cccc(Br)c2C1` [3k, 4-Bromo-2-{[2-(piperazin-1-yl)phenyl]sulfonyl}isoindoline], for which, in data set [1], the Ki was found to be 32 ± 5 nM.
As to `O=S(=O)(c1ccc(N2CCNCC2)cc1)N1Cc2cccc(Br)c2C1` [3c, 4-Bromo-2-{[4-(piperazin-1-yl)phenyl]sulfonyl}isoindoline], in data set [1], the Ki amounted to 10 ± 2 nM.
`O=S(=O)(c1cccc(N2CCNCC2)c1)N1Cc2ccc(Br)cc2C1` [3h, 5-Bromo-2-{[3-(piperazin-1-yl)phenyl]sulfonyl}isoindoline]: the Ki in data set [1] was < 5 nM and 4 nM.
On the same count and under the same terms, then `O=S(=O)(c1ccccc1N1CCNCC1)N1Cc2cccc(Cl)c2C1` [3j, 4-Chloro-2-{[2-(piperazin-1-yl)phenyl]sulfonyl}isoindoline], with > 900 nM and 918 nM; and `O=S(=O)(c1ccc(N2CCNCC2)cc1)N1Cc2ccc(Br)cc2C1` [3d, 5-Bromo-2-{[4-(piperazin-1-yl)phenyl]sulfonyl}isoindoline], with 87 ± 12 nM.
On the same count and under the same terms, under `O=S(=O)(c1ccc(N2CCNCC2)cc1)N1Cc2cccc(Cl)c2C1` [3b, 4-Chloro-2-{[4-(piperazin-1-yl)phenyl]sulfonyl}isoindoline] stands 7 ± 1 nM; under `O=S(=O)(c1ccccc1N1CCNCC1)N1Cc2ccc(Br)cc2C1` [3l, 5-Bromo-2-{[2-(piperazin-1-yl)phenyl]sulfonyl}isoindoline], > 900 nM and 1170 nM.
In the case of `O=S(=O)(c1cccc(Cl)c1)n1ccc2c(N[C@H]3CCNC3)nc3ccccc3c21` [CPPQ, (S)-1-[(3-chlorophenyl)sulfonyl]-4-(pyrrolidine-3-yl-amino)-1H-pyrrolo[3,2-c]quinoline], the “effect on ROT-induced cytotoxicity” value in data set [2] is recorded as “decreased the cytotoxicity”. The “effect on 6-OHDA-induced cytotoxicity” value in data set [3] is reported as “decreased the cytotoxicity”.
For the compound `NCCc1cn(S(=O)(=O)c2c(Cl)nc3sccn23)c2ccccc12` [WAY-181187], in data set [2], the “effect on ROT-induced cytotoxicity” value is given as “slightly but not significantly enhanced the gliotoxic effects”. For the same compound, in data set [3], the “effect on 6-OHDA-induced cytotoxicity” value was “slightly but not significantly enhanced the gliotoxic effects”.
`O=S(=O)(c1ccc(N2CCNCC2)cc1)N1Cc2ccccc2C1` [3a, 2-{[4-(Piperazin-1-yl)phenyl]sulfonyl}isoindoline]: the Ki in data set [1] came out at 6 ± 1 nM.
With `COc1cccc2c1C(=O)c1c(O)c3c(c(O)c1C2=O)C[C@@](O)(C(=O)CO)C[C@@H]3O[C@H]1C[C@H](N)[C@H](O)[C@H](C)O1` [Doxorubicin, reference compound], the 50% inhibitory concentration (IC50) at 48 h in data set [4] worked out at 10800 nM; in data set [5], 4400 nM; in data set [6], 12300 nM.
Take `O=S(=O)(c1ccccc1N1CCNCC1)N1Cc2ccccc2C1` [3i, 2-{[2-(Piperazin-1-yl)phenyl]sulfonyl}isoindoline]: the Ki in data set [1] is > 900 nM and 977 nM.
Consider `O=C(N[C@@H]1CCNC1)c1ccn(S(=O)(=O)c2cccc(Cl)c2)c1-c1ccc(F)cc1` [I], for which, in data set [7], the “Functional profile at Cdk5” value is “Inverse agonist”. The “Functional profile at Gs” value in data set [8] is listed as “Inverse agonist”.
